{
  "source": "patent US7479481B2",
  "about": "“Treatment of ocular diseases and disorders using lantibiotic compositions” (Molichem Medicines, Inc., priority 2004, dated 2009)",
  "origin": "cited, not measured here",
  "test_system": "clatharin-coated vesicle acidification",
  "conditions": "clatharin-coated vesicles; Stone et al., J. Biol. Chem. 259: 2701-2703 (1984)",
  "data": [
    {"substance": "duramycin", "values": [
      {"measurement": "inhibition of the proton translocation facilitated by chloride translocation", "value": "up to 50%"}
    ]}
  ]
}
